Measured values from BigSolDB 2.1.

CCOC(=O)[C@@H](N)CCc1ccccc1.Cl
solubility (mole fraction)
Conditions	283.15 K	288.15 K	293.15 K	298.15 K	303.15 K	313.15 K	323.15 K
in 1,4-dioxane	–	0.00221	0.00266	–	0.00381	0.00845	0.0142
in 2-butanone	0.00022	–	0.00031	–	0.0004	0.00073	0.0013
in acetone	0.00068	–	0.00117	–	0.00182	0.00297	0.00505
in dichloromethane	0.0172	0.0233	0.0303	0.0386	0.0489	–	–
in ethanol	0.031	–	0.0393	–	0.0505	0.0666	0.0867
in isobutanol	0.0101	–	0.014	–	0.0203	0.0311	0.0472
in isopropanol	0.00726	–	0.0096	–	0.0135	0.0192	0.0286
in methyl acetate	4e-05	–	5e-05	–	0.00012	0.00024	0.00034
in n-butanol	0.0128	–	0.0163	–	0.022	0.0253	0.0277
in n-pentanol	0.0161	–	0.0215	–	0.0294	0.0427	0.0595
in n-propanol	0.019	–	0.0262	–	0.0353	0.0487	0.0679
in sec-butanol	0.00416	–	0.00614	–	0.00846	0.013	0.0257
